# Assay results: the supplement of paper PMC10307832
# Compound: COc1cc2nc(N3CCCN(C)CC3)nc(NC3CCN(Cc4ccccc4)CC3)c2cc1OC + CCNC(=O)c1noc(-c2cc(C(C)C)c(O)cc2O)c1-c1ccc(CN2CCOCC2)cc1 [Luminespib] (partner 0.01 µM)
# Test: relative viability (nuclei count vs DMSO), 5 days (fraction); higher = more cells survive
# Details: first compound 0.2 µM
# Summary of the method: (§1)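 Lung cancer cell lines were seeded in 1536-well plates and dosed by pin tool the next day, with either a single drug or a fixed anchor-drug dose combined with five library-drug doses (not always all listed) spaced in √10 steps. Five days later, one step fixed the cells and stained their nuclei (final 0.05% Triton X-100, 1% formaldehyde, 1 ug/ml Hoechst), and nuclei were counted on 4× images. Relative viability is the nuclei count in treated wells divided by the count in vehicle wells, and each value is the median of duplicate plates.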
row,Cell Line,relative viability
1,NCI-H441,0.318
2,NCI-H661,0.903
3,NCI-H1734,0.182
4,NCI-H460,0.0382
5,NCI-H2347,0.57
6,SK-LU-1,0.184
7,NCI-H1395,0.7
8,201T,1.09
9,NCI-H1915,0.762
10,HCC-827,0.627
11,LXF-289,0.592
12,NCI-H23,0.223
13,NCI-H647,0.352
14,CAL-12T,0.441
15,NCI-H1651,0.905
16,EPLC-272H,0.228
17,NCI-H2228,0.162

row,Cell Line,relative viability
1,NCI-H1355,0.715
2,NCI-H3122,0.0795
3,NCI-H1437,1.12
4,NCI-H1755,0.44
5,NCI-H2023,0.818
6,HCC-15,0.174
7,NCI-H1793,0.18
8,PC-14,0.123
9,EKVX,0.829
10,LC-2-ad,0.961
11,NCI-H1944,0.829
12,NCI-H1975,0.159
13,RERF-LC-KJ,1.15
14,ABC-1,0.588
15,NCI-H358,0.506
16,NCI-H650,0.746
17,PC-3 [JPC-3],0.753

# Same assay, conditions: first compound 0.6325 µM
row,Cell Line,relative viability
1,NCI-H441,0.368
2,NCI-H661,0.894
3,NCI-H1734,0.194
4,NCI-H460,0.0418
5,NCI-H2347,0.521
6,SK-LU-1,0.213
7,NCI-H1395,0.695
8,201T,1.12
9,NCI-H1915,0.731
10,HCC-827,0.555
11,LXF-289,0.651
12,NCI-H23,0.209
13,NCI-H647,0.249
14,CAL-12T,0.308
15,NCI-H1651,0.846
16,EPLC-272H,0.736
17,NCI-H2228,0.12

row,Cell Line,relative viability
1,NCI-H1355,0.693
2,NCI-H3122,0.0919
3,NCI-H1437,1.06
4,NCI-H1755,0.536
5,NCI-H2023,0.646
6,HCC-15,0.205
7,NCI-H1793,0.193
8,PC-14,0.242
9,EKVX,0.878
10,LC-2-ad,0.973
11,NCI-H1944,0.668
12,NCI-H1975,0.212
13,RERF-LC-KJ,1.13
14,ABC-1,0.52
15,NCI-H358,0.275
16,NCI-H650,0.628
17,PC-3 [JPC-3],0.675

# Same assay, conditions: first compound 2 µM
row,Cell Line,relative viability
1,NCI-H441,0.334
2,NCI-H661,0.911
3,NCI-H1734,0.183
4,NCI-H460,0.0348
5,NCI-H2347,0.446
6,SK-LU-1,0.197
7,NCI-H1395,0.7
8,201T,1.1
9,NCI-H1915,0.794
10,HCC-827,0.634
11,LXF-289,0.729
12,NCI-H23,0.206
13,NCI-H647,0.159
14,CAL-12T,0.337
15,NCI-H1651,1.14
16,EPLC-272H,0.262
17,NCI-H2228,0.138

row,Cell Line,relative viability
1,NCI-H1355,0.734
2,NCI-H3122,0.0888
3,NCI-H1437,1.21
4,NCI-H1755,0.406
5,NCI-H2023,0.637
6,HCC-15,0.342
7,NCI-H1793,0.134
8,PC-14,0.162
9,EKVX,0.831
10,LC-2-ad,1.21
11,NCI-H1944,0.863
12,NCI-H1975,0.21
13,RERF-LC-KJ,1.33
14,ABC-1,0.512
15,NCI-H358,0.434
16,NCI-H650,0.783
17,PC-3 [JPC-3],0.745

# Same assay, conditions: first compound 6.325 µM
row,Cell Line,relative viability
1,NCI-H441,0.584
2,NCI-H661,0.957
3,NCI-H1734,0.172
4,NCI-H460,0.0281
5,NCI-H2347,0.524
6,SK-LU-1,0.178
7,NCI-H1395,0.71
8,201T,1.08
9,NCI-H1915,0.893
10,HCC-827,0.612
11,LXF-289,0.676
12,NCI-H23,0.187
13,NCI-H647,0.292
14,CAL-12T,0.28
15,NCI-H1651,0.804
16,EPLC-272H,0.432
17,NCI-H2228,0.101

row,Cell Line,relative viability
1,NCI-H1355,0.773
2,NCI-H3122,0.0791
3,NCI-H1437,0.965
4,NCI-H1755,0.478
5,NCI-H2023,0.134
6,HCC-15,0.241
7,NCI-H1793,0.154
8,PC-14,0.122
9,EKVX,0.888
10,LC-2-ad,1.06
11,NCI-H1944,0.661
12,NCI-H1975,0.264
13,RERF-LC-KJ,0.903
14,ABC-1,0.737
15,NCI-H358,0.208
16,NCI-H650,0.661
17,PC-3 [JPC-3],0.585

# Compound: Cc1cc([C@@H](C)Nc2ccccc2C(=O)O)c2nc(N3CCOCC3)cc(=O)n2c1 [AZD6482] + Cc1cc(Nc2cc(N3CCN(C)CC3)nc(Sc3ccc(NC(=O)C4CC4)cc3)n2)n[nH]1 [Tozasertib] (partner 0.1 µM)
# Test: as above
# Details: first compound 0.08 µM
# Summary of the method: as §1
row,Cell Line,relative viability
1,NCI-H441,0.631
2,NCI-H661,0.365
3,NCI-H1734,0.287
4,NCI-H460,0.468
5,NCI-H2347,0.321
6,NCI-H1395,0.625
7,201T,0.904
